Where two headings read alike, the source gives them in different places.
Key:
[1] = test system: HEK293 cells; assay: HEK293 cell cytotoxicity; type: cell-based; conditions: human embryonic kidney cell line
[2] = test system: P. falciparum 3D7; assay: Antiplasmodial image-based assay, 3D7 strain; type: cell-based, Plasmodium falciparum; conditions: chloroquine-sensitive P. falciparum strain 3D7; for % Inhibition @ 60 µM, 3D7 / inhibition: 72 h, 60 µM; for IC50 / inhibition: Plasmodium falciparum; for IC50: control compounds; for inhibition: 3D7, 72 h
Method: (§1) An anti-plasmodial imaging assay reported by Duffy and Avery was used to examine the antiplasmodial activities of synthetic indoles 25, 26, 36, 37, 38, 40, 41, 43, 45, 46, 47, 48, 50 and 51. All compounds were diluted to […] in DMSO and tested at three increasing concentrations from 0.4 nM–40 μM per log dose in a 16-point CRC ([…]) parasite strains of Plasmodium falciparum. […] Normalised percent inhibition data was obtained using in-plate positive (4 μM DHA) and negative (0.4% DMSO) controls, which were then used to calculate IC50 values. Compounds were incubated in CellCarrier-384 well imaging plates in the presence of 2% parasitemia (3D7 or Dd2) at 0.3% hematocrit in a total assay volume of 50 μL for 72 h at 37 °C, 5% O2, 5% CO2 and 90% N2. After incubation, plates were stained with 4′,6-diamidino-2-phenylindole (DAPI) and imaged using an Opera Phenix high-content imaging system (Revvity, Mulgrave, Victoria, Australia). Images were analysed using Harmony (Revvity) software (version 3), while percent parasite inhibition was calculated using the minimum (0.4% DMSO) and (DHA). IC50 values were determined by plotting % inhibition against log dose and analysed using nonlinear regression and sigmoidal dose-response using GraphPad Prism version 6.

[3] = target: T1, α-chymotrypsin from bovine pancreas (Bos taurus, UniProt P00766); assay: Serine protease assay, chymotrypsin; type: biochemical; conditions: 10 µM; remaining enzyme activity
T1 construct: α-chymotrypsin from bovine pancreas (Sigma, C4129); purchased Sigma C4129; host or cells: bovine pancreas
Method: (§2) Serine protease-inhibitory activities for 25–56 were determined in 96 well plates. Each inhibitor was initially tested in duplicate against elastase and chymotrypsin at 10 µM. […] Assays for the inhibition of elastase were undertaken using high-purity porcine pancreatic elastase (Sigma, Melbourne, Victoria, Australia, E0258) in an assay buffer of 50 mM Tris-HCl (pH 8.0) at room temperature. Dilutions of each inhibitor (originally resuspended in DMSO) were prepared in triplicate and then preincubated with 375 ng of elastase for 15 min at room temperature in a total reaction volume of 85 µL. Following this preincubation, 15 µL of 2 mM N-succinyl-Ala-Ala-Ala-p-nitroanilide (Sigma, S4760) in assay buffer was added to each well and kinetic measurement of absorbance at 405 nm (Tecan Spark Plate Reader, Zürich, Switzerland) was undertaken for 30 min. […] Dilutions of each inhibitor were prepared in triplicate and preincubated with 5 µg of chymotrypsin for 10 min at 37 °C in a total reaction volume of 75 µL. After preincubation, 25 µL of 2 mM N-succinyl-Gly-Gly-Phe-p-nitroanilide (Sigma, S1899) was added to each well and kinetic measurement of absorbance at 405 nm was undertaken for 30 min. Inhibitory activity was determined by comparison of the slope of the reaction curve for multiple dilutions of the inhibitor to that of an equivalent solvent control and expressed as IC50 ± standard deviation.

[4] = test system: P. falciparum Dd2; assay: Antiplasmodial image-based assay, Dd2 strain; type: cell-based, Plasmodium falciparum; conditions: chloroquine-resistant P. falciparum strain Dd2; for % Inhibition @ 60 µM, Dd2: 72 h; for IC50: Plasmodium falciparum, control compounds
Method: as §1

[5] = target: T2, SARS-CoV-2 3CLpro (Severe acute respiratory syndrome coronavirus 2, UniProt P0DTD1); assay: biochemical
T2 construct: Each well contained 25 nM of SARS-CoV-2 3CL^Pro and eCFP-Venus biosensor (500 nM)

[6] = target: T3, porcine pancreatic elastase (Sus scrofa, UniProt P00772); assay: Serine protease assay, elastase; type: biochemical; conditions: remaining enzyme activity
T3 construct: high-purity porcine pancreatic elastase (Sigma, Melbourne, Victoria, Australia, E0258); purchased Sigma E0258
T3 sequence (P00772 27-266): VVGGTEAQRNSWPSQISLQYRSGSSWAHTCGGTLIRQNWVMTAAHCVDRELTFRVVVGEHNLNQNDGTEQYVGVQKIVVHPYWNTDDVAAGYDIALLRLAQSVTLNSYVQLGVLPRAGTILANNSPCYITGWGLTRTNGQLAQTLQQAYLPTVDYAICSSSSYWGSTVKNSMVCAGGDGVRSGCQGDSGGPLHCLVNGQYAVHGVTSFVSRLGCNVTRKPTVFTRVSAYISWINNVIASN
Method: as §2

| Structure (SMILES) | % enzyme activity @ 10 µM, chymotrypsin [3] [%] | % inhibition @ 20 µM, No DTT ([5]; 20 µM, no DTT) [%] | % inhibition @ 20 µM, DTT ([5]; 20 µM, with DTT (4 mM)) [%] | % enzyme activity @ 10 µM, elastase [6] [%] | also measured |
| --- | --- | --- | --- | --- | --- |
| O=C(N[C@H](Cc1c[nH]c2ccccc12)C(=O)O)C(=O)c1c[nH]c2cc(Br)ccc12 [Compound 48, 6-bromoindolyl-3-glyoxyl-D-tryptophan] | 83.6 | 20.8 | 2.0 | 91.1 | % Inhibition @ 60 µM, HEK293 [1]: 16.0%; % Inhibition @ 60 µM, 3D7 [2]: 99.0%; % Inhibition @ 60 µM, Dd2 [4]: 97.5% |
| CC(C)[C@@H](NC(=O)C(=O)c1c[nH]c2cc(Br)ccc12)C(=O)O [Compound 56, 6-bromoindolyl-3-glyoxyl-D-valine] | 94.0 | 6.8 | 2.7 | 104.4 |  |
| O=C(N[C@@H](CO)C(=O)O)C(=O)c1c[nH]c2cc(Br)ccc12 [Compound 44, 6-bromoindolyl-3-glyoxyl-L-serine] | 97.1 | 7.3 | 2.9 | 99.0 |  |
| CCN(CC)CCCC(C)Nc1ccnc2cc(Cl)ccc12 (centres unmarked) [Chloroquine, reference compound] |  |  |  |  | IC50 [2]: 0.0778 µM; IC50 [4]: 0.696 µM |
| O=C(N[C@@H](CO)C(=O)O)C(=O)c1c[nH]c2ccc(Br)cc12 [Compound 43, 5-bromoindolyl-3-glyoxyl-L-serine] | 96.1 | 105.5 | 2.0 | 101.4 | % Inhibition @ 60 µM, HEK293 [1]: 21.0%; % Inhibition @ 60 µM, 3D7 [2]: 1.0%; % Inhibition @ 60 µM, Dd2 [4]: 1.0%; IC50 ([5]; no DTT): 1.2 µM |
| CC(C)[C@@H](NC(=O)C(=O)c1c[nH]c2ccc(Br)cc12)C(=O)O [Compound 54, 5-bromoindolyl-3-glyoxyl-D-valine] | 97.3 | 1.3 | 1.0 | 105.4 |  |
| O=C(N[C@@H](Cc1ccc(O)cc1)C(=O)O)C(=O)c1c[nH]c2ccc(Br)cc12 [Compound 49, 5-bromoindolyl-3-glyoxyl-L-tyrosine] | 82.9 | 15.0 | 1.9 | 99.5 |  |
| CC(C)[C@H](NC(=O)C(=O)c1c[nH]c2cc(Br)ccc12)C(=O)O [Compound 55, 6-bromoindolyl-3-glyoxyl-L-valine] | 105.0 | 6.8 | 3.0 | 88.9 |  |
| N=C(N)NCCC[C@@H](NC(=O)C(=O)c1c[nH]c2cc(Br)ccc12)C(=O)O [Compound 32, 6-bromoindolyl-3-glyoxyl-D-arginine] | 99.2 | 3.0 | 0.8 | 102.3 |  |
| C[C@H](NC(=O)C(=O)c1c[nH]c2cc(Br)ccc12)C(=O)O [Compound 27, 6-bromoindolyl-3-glyoxyl-L-alanine] | 94.4 | 1.9 | 1.3 | 109.6 |  |
| CCc1nc(N)nc(N)c1-c1ccc(Cl)cc1 [Pyrimethamine, reference compound] |  |  |  |  | inhibition [2]: -10%; IC50 [2]: 0.0141 µM |
| C[C@@H](NC(=O)C(=O)c1c[nH]c2cc(Br)ccc12)C(=O)O [Compound 28, 6-bromoindolyl-3-glyoxyl-D-alanine] | 92.1 | 1.7 | 0.8 | 107.4 |  |
| N=C(N)NCCC[C@H](NC(=O)C(=O)c1c[nH]c2cc(Br)ccc12)C(=O)O [Compound 31, 6-bromoindolyl-3-glyoxyl-L-arginine] | 99.5 | 4.3 | 2.4 | 99.3 |  |
| N=C(N)NCCC[C@@H](NC(=O)C(=O)c1c[nH]c2ccc(Br)cc12)C(=O)O [Compound 30, 5-bromoindolyl-3-glyoxyl-D-arginine] | 86.3 | 10.1 | 1.0 | 96.2 |  |
| O=C(N[C@@H](CSSC[C@H](NC(=O)C(=O)c1c[nH]c2ccc(Br)cc12)C(=O)O)C(=O)O)C(=O)c1c[nH]c2ccc(Br)cc12 [Compound 33, 5-bromoindolyl-3-glyoxyl-L-cystine] |  |  |  |  | remaining activity at 10 µM [3]: 94.7%; inhibition at 20 µM ([5]; 20 µM, no DTT, read-out: % inhibition @ 20 µM, No DTT): 64.1%; inhibition at 20 µM ([5]; 20 µM, with DTT (4 mM), read-out: % inhibition @ 20 µM, DTT): 2%; IC50 ([5]; no DTT): 12.5 µM; remaining activity at 10 µM [6]: 107% |
| N=C(N)NCCC[C@H](NC(=O)C(=O)c1c[nH]c2ccc(Br)cc12)C(=O)O [Compound 29, 5-bromoindolyl-3-glyoxyl-L-arginine] | 88.8 | 13.8 | 2.4 | 100.8 |  |
| C[C@H]1[C@@H](O)O[C@@H]2O[C@@]3(C)CC[C@H]4[C@H](C)CC[C@@H]1[C@@]24OO3 [Dihydroartemisinin, reference compound] |  |  |  |  | inhibition [2]: 100%; IC50 [2]: 0.0013 µM; IC50 [4]: 0.0017 µM |
| O=c1c2ccccc2[se]n1-c1ccccc1 [Ebselen, reference compound] |  |  |  |  | inhibition at 20 µM ([5]; read-out: % inhibition @ 20 µM, DTT): 0.2%; inhibition at 20 µM ([5]; read-out: % inhibition @ 20 µM, No DTT): 114% |
| CC(C)[C@H](NC(=O)C(=O)c1c[nH]c2ccc(Br)cc12)C(=O)O [Compound 53, 5-bromoindolyl-3-glyoxyl-L-valine] | 91.6 | 1.9 | 1.3 | 101.3 |  |
| COc1ccc(C[C@H](N)C(=O)N[C@H]2[C@@H](O)[C@H](n3cnc4c(N(C)C)ncnc43)O[C@@H]2CO)cc1 [Puromycin, reference compound] |  |  |  |  | IC50 ([1]; HEK293): 0.673 µM; IC50 [2]: 0.0792 µM; IC50 [4]: 0.0865 µM |

Reference: article PMC11314621, “Cheminformatics-Guided Exploration of Synthetic Marine Natural Product-Inspired Brominated Indole-3-Glyoxylamides and Their Potentials for Drug Discovery” (Molecules, 2024)
